Reference: patent US20060046966A1, “Antipicornaviral compounds and compositions, their pharmaceutical uses, and materials for their synthesis” (Agouron Pharmaceuticals, Inc., priority 1998, published 2006)
Like-named read-outs stand apart in the source and are kept apart here.

Tests used:
[1] = target: T1, rhinovirus 3C protease from HRV serotype-14 (Human rhinovirus 14, UniProt P03303); assay: Inhibition of rhinovirus 3C protease (FRET assay), serotype 14; format: biochemical; settings: HRV serotype-14 3C protease; progress curves in enzyme start experiments; read-out: Protease Inhibition kobs/[I]
T1 construct: Recombinant rhinovirus 3C proteases; made in house
T1 sequence (P03303 1538-1719): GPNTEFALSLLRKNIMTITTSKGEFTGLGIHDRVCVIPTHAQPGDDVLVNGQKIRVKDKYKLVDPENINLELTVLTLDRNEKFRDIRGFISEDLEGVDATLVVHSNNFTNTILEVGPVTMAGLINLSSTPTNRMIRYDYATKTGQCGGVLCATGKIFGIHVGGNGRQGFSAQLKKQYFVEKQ
Experimental: Stock solutions (50 mM, in DMSO) of various compounds were prepared; dilutions were in the same solvent. Recombinant rhinovirus 3C proteases (see Birch et al., “Purification of recombinant human rhinovirus 14 3C protease expressed in Escherichia coli,” Protein Expr. Pur. 1995, 6(5), 609-618) from serotypes 14, 16, and 2 were prepared by the following standard chromatographic procedures: (1) ion exchange using Q Sepharose Fast Flow from Pharmacia; (2) affinity chromatography using Affi-Gel Blue from Biorad; and (3) sizing using Sephadex G-100 from Pharmacia. Each assay sample contained 2% DMSO, 50 mM tris pH 7.6, 1 mM EDTA, a test compound at the indicated concentration, approximately 1 μM substrate, and 50-100 nM protease. The kobs/I values were obtained from reactions initiated by addition of enzyme rather than substrate. RVP activity was measured in the fluorescence resonance energy transfer assay. The substrate was (N-terminal) DABCYL-(Gly-Arg-Ala-Val-Phe-Gln-Gly-Pro-Val-Gly)-EDANS. In the uncleaved peptide, the EDANS fluorescence was quenched by the proximal DABCYL moiety. When the peptide was cleaved, the quenching was relieved, and activity was measured as an increase in fluorescence signal. In Table 1, all data are for rhinovirus 3C protease from HRV serotype-14 (produced from the infectious cDNA clone constructed by Dr. Robert Rueckert, Institute for Molecular Virology, University of Wisconsin, Madison, Wis.). […] The data in the column designated kobs/[I] were measured from progress curves in enzyme start experiments.

HRV-14 = assay: Antirhinoviral H1-HeLa cell culture assay, HRV-14; format: cell-based, human rhinovirus; settings: Rhinovirus B, HRV14, H1-HeLa, HRV serotype-14, H1-HeLa cells
Experimental: (§1) In this cell protection assay, the ability of compounds to protect cells against HRV infection was measured by the XTT dye reduction method, which is described in Weislow et al., J. Natl. Cancer Inst. 1989, vol. 81, 577-586.
(§2) H1-HeLa cells were infected with HRV-14 at a multiplicity of infection (m.o.i.) of 0.13 (virus particles/cell) or mock-infected with medium only. Infected or mock-infected cells were resuspended at 8×10^5 cells per mL, and incubated with appropriate concentrations of the compounds to be tested. Two days later, XTT/PMS was added to test plates and the amount of formazan produced was quantified spectrophotometrically at 450/650 nm. The EC50 value was calculated as the concentration of compound that increased the percentage of formazan production in compound-treated, virus-infected cells to 50% of that produced by compound-free, mock-infected cells. The 50% cytotoxic dose (CC50) was calculated as the concentration of compound that decreased the percentage of formazan produced in compound-treated, mock-infected cells to 50% of that produced by compound-free, mock-infected cells. The therapeutic index (TI) was calculated by dividing the CC50 value by the EC50 value.
(§3) All strains of human rhinovirus (HRV) for use in this assay were purchased from American Type Culture Collection (ATCC), except for HRV serotype-14 (produced from the infectious cDNA clone constructed by Dr. Robert Rueckert, Institute for Molecular Virology, University of Wisconsin, Madison, Wis.). HRV stocks were propagated and viral assays were performed in H1-HeLa cells (ATCC). Cells were grown in minimal essential medium with 10% fetal bovine serum, available from Life Technologies (Gaithersburg, Md.).
(§4) The compounds were tested against control compounds WIN 51711, WIN 52084, and WIN 54954 (obtained from Sterling-Winthrop Pharmaceuticals), Pirodavir (obtained from Janssen Pharmaceuticals), and Pleconaril (prepared according to the method described in Diana et al., J. Med. Chem 1995, vol. 38, 1355). Antiviral data obtained for the test compounds are shown in Tables 1 and 3, where all data are for HRV serotype-14 unless otherwise noted in parentheses.

HRV (2) = assay: Antirhinoviral H1-HeLa cell culture assay, HRV serotype 2; format: cell-based, human rhinovirus; settings: Human rhinovirus sp., H1-HeLa, H1-HeLa cells, XTT
Experimental: as §1, §2, §3, §4

HRV (1A) = assay: Antirhinoviral H1-HeLa cell culture assay, HRV serotype 1A; format: cell-based; settings: Human rhinovirus sp., H1-HeLa cells, XTT
Experimental: as §1, §2, §3, §4

HRV (89) = assay: Antirhinoviral H1-HeLa cell culture assay, HRV serotype 89; format: cell-based, human rhinovirus; settings: Human rhinovirus sp., H1-HeLa cells, XTT
Experimental: as §1, §2, §3, §4

HRV (16) = assay: Antirhinoviral H1-HeLa cell culture assay, HRV serotype 16; format: cell-based; settings: Human rhinovirus sp., H1-HeLa cells, XTT
Experimental: as §1, §2, §3
(§5) The compounds were tested against control compounds WIN 51711, WIN 52084, and WIN 54954 (obtained from Sterling-Winthrop Pharmaceuticals), Pirodavir (obtained from Janssen Pharmaceuticals), and Pleconaril (prepared according to the method described in Diana et al., J. Med. Chem 1995, vol. 38, 1355). […]

HRV (39) = assay: Antirhinoviral H1-HeLa cell culture assay, HRV serotype 39; format: cell-based, human rhinovirus; settings: Human rhinovirus sp., H1-HeLa cells, XTT
Experimental: as §1, §2, §3, §5

HRV (10) = assay: Antirhinoviral H1-HeLa cell culture assay, HRV serotype 10; format: cell-based, human rhinovirus; settings: Human rhinovirus sp., H1-HeLa, H1-HeLa cells, XTT
Experimental: as §1, §2, §3, §4

HRV (3) = assay: Antirhinoviral H1-HeLa cell culture assay, HRV serotype 3; format: cell-based, human rhinovirus; settings: Human rhinovirus sp., H1-HeLa, H1-HeLa cells, XTT
Experimental: as §1, §2, §3, §5

HRV (9) = assay: Antirhinoviral H1-HeLa cell culture assay, HRV serotype 9; format: cell-based, human rhinovirus; settings: Human rhinovirus sp., H1-HeLa cells, XTT
Experimental: as §1, §2, §3, §5

HRV (12) = assay: Antirhinoviral H1-HeLa cell culture assay, HRV serotype 12; format: cell-based; settings: Human rhinovirus sp., H1-HeLa cells, XTT
Experimental: as §1
as §2, with “value. […]” for “value.”

HRV (13) = assay: Antirhinoviral H1-HeLa cell culture assay, HRV serotype 13; format: cell-based, human rhinovirus; settings: Human rhinovirus sp., H1-HeLa, H1-HeLa cells, XTT
Experimental: as §1, §2, §3, §5

HRV (17) = assay: Antirhinoviral H1-HeLa cell culture assay, HRV serotype 17; format: cell-based, human rhinovirus; settings: Human rhinovirus sp., H1-HeLa cells, XTT
Experimental: as §1, §2, §3, §5

HRV (25) = assay: Antirhinoviral H1-HeLa cell culture assay, HRV serotype 25; format: cell-based; settings: Human rhinovirus sp., H1-HeLa cells, XTT
Experimental: as §1
as §2, with “value. […]” for “value.”

HRV (30) = assay: Antirhinoviral H1-HeLa cell culture assay, HRV serotype 30; format: cell-based; settings: Human rhinovirus sp., H1-HeLa cells, XTT
Experimental: as §1
as §2, with “value. […]” for “value.”

HRV (38) = assay: Antirhinoviral H1-HeLa cell culture assay, HRV serotype 38; format: cell-based; settings: Human rhinovirus sp., H1-HeLa cells, XTT
Experimental: as §1
as §2, with “value. […]” for “value.”

HRV (87) = assay: Antirhinoviral H1-HeLa cell culture assay, HRV serotype 87; format: cell-based; settings: Human rhinovirus sp., H1-HeLa cells, XTT
Experimental: as §1
as §2, with “value. […]” for “value.”

[2] = test system: Coxsackievirus type A-21 (CAV-21); assay: Anticoxsackieviral cell culture assay, CAV-21; format: cell-based; settings: H1-HeLa, 48 h
Experimental: (§6) Coxsackievirus types A-21 (CAV-21) and B3 (CVB-3) were purchased from American Type Culture Collection (ATCC, Rockville, Md.). Virus stocks were propagated and antiviral assays were performed in H1-HeLa cells (ATCC). Cells were grown in minimal essential medium with 10% fetal bovine serum (Life Technologies, Gaithersburg, Md.).
(§7) The ability of compounds to protect cells against either CAV-21 or CVB-3 infection was measured by the XTT dye reduction method. This method is described in Weislow et al., J. Natl. Cancer Inst. 1989, vol. 81, 577-586. H1-HeLa cells were infected with CAV-21 or CVB-3 at a multiplicity of infection (m.o.i.) of 0.025 or 0.075, respectively, or mock-infected with medium only. H1-HeLa cells were plated at 4×10^4 cells per well in a 96-well plate and incubated with appropriate concentrations of the test compound. One day (CVB-3) or two days (CAV-21) later, XTT/PMS was added to test plates and the amount of formazan produced was quantified spectrophotometrically at 450/650 nm. The EC50 was calculated as the concentration of compound that increased the formazan production in compound-treated, virus-infected cells to 50% of that produced by compound-free, uninfected cells. The 50% cytotoxic dose (CC50) was calculated as the concentration of compound that decreased formazan production in compound-treated, uninfected cells to 50% of that produced in compound-free, uninfected cells. The therapeutic index TI) was calculated by dividing the CC50 by the EC50.
(§8) The compounds were tested against control compounds WIN 54954 (obtained from Sterling-Winthrop Pharmaceuticals), Pirodavir (obtained from Janssen Pharmaceuticals), and Pleconaril (prepared according to Diana et al., J. Med. Chem. 1995, 38, 1355).

[3] = test system: Coxsackievirus type B3 (CVB-3); assay: Anticoxsackieviral cell culture assay, CVB-3; format: cell-based; settings: H1-HeLa, 24 h
Experimental: as §6, §7, §8

[4] = test system: Echovirus type 11 (EV 11); assay: Anti-echoviral cell culture assay, EV 11; format: cell-based; settings: Enterovirus B, MRC5, 96 h
Experimental: Echovirus type 11 (EV 11) and enterovirus type 70 (EV 70) were purchased from ATCC (Rockville, Md.). Virus stocks were propagated and antiviral assays were performed in MRC-5 cells (ATCC). Cells were grown in minimal essential medium with 10% fetal bovine serum (Life Technologies, Gaithersburg, Md.).
The ability of compounds to protect cells against either EV 11 or EV 70 infection was measured by the XTT dye reduction method (Weislow et al., J. Natl. Cancer Inst. 1989, vol. 81, 577-586). MRC-5 cells were infected with EV 11 or EV 70 at an m.o.i. of 0.003 or 0.004, respectively, or mock-infected with medium only. Infected or uninfected cells were added at 1×10^4 cells per well and incubated with appropriate concentrations of compound. Four days later, XTT/PMS was added to test plates, and the amount of formazan produced was quantified spectrophotometrically at 450/650 nm. The EC50 was calculated as the concentration of compound that increased the formazan production in compound-treated, virus-infected cells to 50% of that produced by compound-free, uninfected cells. The 50% cytotoxic dose (CC50) was calculated as the concentration of compound that decreased formazan production in compound-treated, uninfected cells to 50% of that produced in compound-free, uninfected cells. The therapeutic index (TI) was calculated by dividing the CC50 by the EC50.
The compounds were tested against control compounds Pirodavir (obtained from Janssen Pharmaceuticals) and Pleconaril (prepared according to Diana et al., J. Med. Chem. 1995, vol. 38, 1355). Antiviral data obtained for the test compounds against strain EV 11 and EV 70 are shown below in Table 5.

[5] = Table 1, XTT dye reduction, read-out: Cell Protection EC50

## CCOC(=O)/C=C/[C@H](C[C@@H]1CCNC1=O)NC(=O)[C@H](Cc1ccc(F)cc1)OC(=O)[C@@H](NC(=O)c1cc(C)on1)C(C)C [Compound C-2, Ethyl-3-{(5′-Methylisoxazole-3′-carbonyl)-L-Val-O-L-(4-F-Phe)-L-((S)-Pyrrol-Ala)}-E-Propenoate]
[1]
  kinact/KI: 270000 M⁻¹ s⁻¹
HRV-14; [5]
  EC50: 2 nM
HRV-14; Table 3, XTT, read-out: EC50
  EC50: 2 nM
HRV (2)
  EC50: 4 nM
HRV (1A)
  EC50: 10 nM
HRV (89)
  EC50: 4 nM
HRV (16)
  EC50: 10 nM
HRV (39)
  EC50: 10 nM
HRV (10)
  EC50: 20 nM
HRV (3)
  EC50: 20 nM
HRV (9)
  EC50: 10 nM
HRV (12)
  EC50: 40 nM
HRV (13)
  EC50: 7 nM
HRV (17)
  EC50: 7 nM
HRV (25)
  EC50: 70 nM
HRV (30)
  EC50: 30 nM
HRV (38)
  EC50: 50 nM
HRV (87)
  EC50: 20 nM

## CCOC(=O)/C=C/[C@H](CCC(N)=O)NC(=O)[C@H](Cc1ccccc1)NC(=O)[C@H](CC(C)C)NC(=O)c1ccno1 [Compound A-2, Ethyl-3-((Isoxazole-5′-carbonyl)-L-Leu-L-Phe-L-Gln)-E-Propenoate]
[1]
  kinact/KI: 46900 M⁻¹ s⁻¹
HRV-14; [5]
  EC50: 1600 nM
HRV-14; Table 3, XTT, read-out: EC50
  EC50: 1600 nM
other
  melting point: 217 to 220 °C

## Cc1cc(CCCOc2c(C)cc(-c3noc(C(F)(F)F)n3)cc2C)on1 [Pleconaril, reference compound]
HRV-14; Table 3, XTT, read-out: EC50
  EC50: 10 nM
[2]
  EC50: 90 nM
[3]
  EC50: > 10000 nM
[4]
  EC50: 160 nM
